Measurements: patent US20130040845A1, “METHOD FOR SCREENING RECEPTORS/LIGANDS INTERACTIONS” (IMMUNE DISEASE INSTITUTE, INC., priority 2010, published 2013)

Columns and labels:
RARα receptor = biological target: T1, RARα receptor (Homo sapiens, UniProt P10276); conditions: cited from earlier work
T1 sequence (P10276 1-462): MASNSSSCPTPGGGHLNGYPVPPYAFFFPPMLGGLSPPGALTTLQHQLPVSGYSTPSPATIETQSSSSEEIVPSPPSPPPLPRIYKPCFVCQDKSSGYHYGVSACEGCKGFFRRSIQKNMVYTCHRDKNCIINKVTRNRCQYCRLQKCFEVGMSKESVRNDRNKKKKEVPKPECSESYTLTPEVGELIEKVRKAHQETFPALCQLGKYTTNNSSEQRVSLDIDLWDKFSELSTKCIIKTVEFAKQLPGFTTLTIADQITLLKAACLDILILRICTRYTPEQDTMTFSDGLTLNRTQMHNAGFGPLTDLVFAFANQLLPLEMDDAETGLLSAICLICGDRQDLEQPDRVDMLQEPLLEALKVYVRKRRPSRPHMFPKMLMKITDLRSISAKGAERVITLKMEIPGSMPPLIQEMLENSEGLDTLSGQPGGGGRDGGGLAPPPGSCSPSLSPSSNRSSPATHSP

RARγ receptor = biological target: T2, RARγ receptor (Homo sapiens, UniProt P13631); conditions: cited from earlier work
T2 sequence (P13631 1-454): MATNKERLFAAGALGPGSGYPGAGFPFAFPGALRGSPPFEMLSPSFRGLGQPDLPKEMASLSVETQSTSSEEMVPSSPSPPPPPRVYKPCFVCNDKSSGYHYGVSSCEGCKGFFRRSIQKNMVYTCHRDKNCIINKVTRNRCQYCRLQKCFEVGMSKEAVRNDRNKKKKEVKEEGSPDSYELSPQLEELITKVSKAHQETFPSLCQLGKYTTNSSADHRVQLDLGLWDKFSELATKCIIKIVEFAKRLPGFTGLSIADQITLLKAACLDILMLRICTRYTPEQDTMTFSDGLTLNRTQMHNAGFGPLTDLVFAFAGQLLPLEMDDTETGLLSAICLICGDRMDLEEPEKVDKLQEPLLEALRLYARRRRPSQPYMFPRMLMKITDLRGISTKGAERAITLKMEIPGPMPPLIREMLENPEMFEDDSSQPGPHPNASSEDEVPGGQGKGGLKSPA

RARβ receptor = biological target: T3, RARβ receptor (Homo sapiens, UniProt P10826); conditions: cited from earlier work
T3 sequence (P10826 1-455): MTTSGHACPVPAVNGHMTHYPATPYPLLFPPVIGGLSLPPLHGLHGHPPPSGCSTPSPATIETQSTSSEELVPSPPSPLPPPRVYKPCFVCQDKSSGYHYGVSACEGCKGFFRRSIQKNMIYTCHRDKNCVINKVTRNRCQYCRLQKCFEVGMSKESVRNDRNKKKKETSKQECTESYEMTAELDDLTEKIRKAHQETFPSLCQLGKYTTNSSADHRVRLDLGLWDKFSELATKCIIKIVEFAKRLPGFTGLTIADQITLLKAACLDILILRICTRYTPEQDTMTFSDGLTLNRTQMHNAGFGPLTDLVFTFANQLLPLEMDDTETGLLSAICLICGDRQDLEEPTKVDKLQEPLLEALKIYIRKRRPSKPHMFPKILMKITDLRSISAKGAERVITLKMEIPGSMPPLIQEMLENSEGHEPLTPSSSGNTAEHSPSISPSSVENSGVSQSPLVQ

[1] = biological target: T4, VWF A1 domain/GPIbα interaction (Homo sapiens, UniProt P04275+P07359); assay: Single-molecule optical tweezer force-extension (pulling) assay on covalently tethered A1-GPIbα chimeric fusion polypeptide; type: binding; conditions: presence vs absence of activator, fixed pulling rate (FIG. 5D-5F)
T4 construct: human VWF A1 domain (Ile1262 to Pro1466 with pre-pro-VWF numbering); human platelet GPIbα (His1 to Arg290) were PCR-amplified; made in house; host or cells: HEK293T
T4 sequence (P04275 1262-1466): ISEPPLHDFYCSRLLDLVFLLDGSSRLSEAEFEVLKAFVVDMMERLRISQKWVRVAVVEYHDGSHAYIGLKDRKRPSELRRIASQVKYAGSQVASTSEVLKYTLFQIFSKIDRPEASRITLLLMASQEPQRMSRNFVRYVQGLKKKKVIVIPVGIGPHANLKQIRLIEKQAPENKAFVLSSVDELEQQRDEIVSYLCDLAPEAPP
T4 sequence (P07359 17-306): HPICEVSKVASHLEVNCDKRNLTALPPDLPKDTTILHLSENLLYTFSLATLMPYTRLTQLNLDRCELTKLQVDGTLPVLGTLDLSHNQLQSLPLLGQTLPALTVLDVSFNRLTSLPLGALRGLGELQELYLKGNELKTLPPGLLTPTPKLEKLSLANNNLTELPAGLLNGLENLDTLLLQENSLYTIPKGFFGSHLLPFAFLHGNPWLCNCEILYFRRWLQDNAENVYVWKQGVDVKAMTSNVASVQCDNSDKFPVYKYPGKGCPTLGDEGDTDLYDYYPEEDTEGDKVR
Source text: In the example described herein, the inventors tethered this single polypeptide to the solid surfaces of two different microspheres using double-stranded DNA (dsDNA) handles. One end of the chimeric polypeptide was tethered to a first dsDNA handle and the other end of the polypeptide was tethered to a second dsDNA handle. The polypeptide was coupled to the dsDNA handles via S—S-bond or disulfide bridges. The free ends of the dsDNA were then linked to digoxigenin or biotin (see FIGS. 3A, 4B & 4C, 10). The dsDNA coupled A1/GPIbα polypeptide was then mixed with beads that were coated with either anti-digoxigenin or streptavidin. The inventors then manipulated the beads with a pipette and a focus laser beam from an optical tweezer to stretch out or extend the A1/GPIbα polypeptide in order to study the minute forces, in pico Newtons (pN), required to dissociate the VWF A1 domain/GPIbα interaction. […] In addition, the inventors measured the extensions of the VWF A1 domain/GPIbα polypeptide that are required to keep the extension force constant. […]
In the example, the inventors monitored the forces applied to the A1/GPIbα polypeptide that is required to extend or stretch out the polypeptide from a ligand-bound state to a ligand-unbonud state with an optical tweezer (see FIG. 8 for the ligand bound and non-ligand bound state of the A1/GPIbα polypeptide). […]

Row | Molecule | Kd (RARα receptor) [nM] | Kd (RARγ receptor) [nM] | Kd (RARβ receptor) [nM] | average dissociative/unbinding force for the A1/GPIbα interaction [1]
1 | O=C(O)c1ccc(-c2ccc3cc(O)c(C45CC6CC(CC(C6)C4)C5)cc3c2)cc1 [CD 1530, 4-(6-Hydroxy-7-tricyclo[3.3.1.13,7]dec-1-yl-2-naphthalenyl) benzoic acid] | 2750 | 150 | 1500 | 
2 | botrocetin |  |  |  | increased the average dissociative/unbinding force
3 | ristocetin |  |  |  | increased the average dissociative/unbinding force
